{"source": "patent US7695731B2", "about": "(Cordis Corporation, priority 2004, dated 2010)", "key": {"[1]": {"test_system": "human smooth muscle cells", "assay": "Cladribine Example, PDGF-stimulated proliferation of smooth muscle cells", "format": "cell-based", "protocol": "(§1) To assess the ability of cladribine to prevent cell proliferation, human smooth muscle or endothelial cells (Clonetics, Walkersville, Md.) were seeded at a density of 2000 cells/cm^2 (approximately 3600 cells/well) into each well of 12-well plates and cultured with 1.5 ml of growth medium containing five percent fetal calf serum (FCS). After twenty-four hours, the growth medium was changed and fresh medium containing 10 ng/ml platelet-derived growth factor AB (PDGF AB; LIFE Technologies), as well as various concentrations of cladribine (0.001-10,000 nM) were added with triplicate wells. Medium was replaced with fresh cladribine-containing medium after three days. On day six, cells were detached by trypsinization to yield a cell suspension, lightly centrifuged to pellet and then counted manually using a Neubauer hemocytometer system. Cell viability was assessed by trypan blue exclusion."}, "[2]": {"test_system": "human endothelial cells", "assay": "Cladribine Example, PDGF-stimulated proliferation of endothelial cells", "format": "cell-based", "conditions": "EC, Cladribine 10.000 nM", "protocol": "as §1"}, "[3]": {"test_system": "human coronary artery smooth muscle cells", "assay": "Anti-proliferative activity in non-synchronized cultured cells stimulated with two percent fetal bovine serum", "format": "cell-based", "conditions": "for effect of addition on the anti-proliferative rapamycin dose response curve: non-synchronized cells treated with rapamycin, two percent fetal bovine serum", "description": "The multiple curves represent various concentrations of mycophenolic acid ranging from zero to one thousand nanomolar concentrations.\nThe multiple curves represent various concentrations of cladribine ranging from zero to nine hundred nanomolar concentrations."}, "[4]": {"assay": "In vivo release kinetics of cladribine from PVDF/HFP coating on Bx Velocity stents (FIG. 61)", "conditions": "PVDF/HFP 85/15 basecoat 1800 μg (30 % cladribine), 300 μg topcoat, Yorkshire pig", "description": "FIG. 61 is a graphical representation of the in vivo release kinetics of cladribine from a polymeric coating on Bx Velocity® stents, available from Cordis Corporation, implanted in a Yorkshire pig. The basecoat comprises an 85/15 ratio of PVDF and HFP and cladribine for a total combined weight of one thousand eight hundred micrograms (cladribine comprising thirty percent of the total weight). The topcoat comprises an 85/15 ratio of PVDF/HFP and no cladribine. The total weight of the topcoat is three hundred micrograms."}, "[5]": {"assay": "In vivo release kinetics from rapamycin/cladribine EVA/BMA basecoat, porcine pharmacokinetics studies (FIG. 62, 63)", "conditions": "EVA/BMA basecoat with 200 μg BMA topcoat, Yorkshire pigs", "description": "(§2) The basecoat is applied to Bx Velocity® stents and implanted into Yorkshire pigs.\nas §2"}, "[6]": {"test_system": "cell viability", "assay": "Cell viability assay", "format": "cell-based"}, "[7]": {"test_system": "human coronary artery smooth muscle cells", "assay": "Anti-proliferative activity in synchronized cultured cells stimulated with two percent fetal bovine serum", "conditions": "synchronized cells treated with rapamycin"}, "[8]": {"assay": "In vivo release kinetics from rapamycin/mycophenolic acid EVA/BMA basecoat, porcine pharmacokinetics studies (FIG. 53, 54)", "conditions": "EVA/BMA basecoat 600 μg with 180 μg each drug, no or 100/200 μg BMA topcoat"}, "[9]": {"test_system": "human coronary artery smooth muscle cell proliferation", "assay": "In vitro cell culture study, coronary artery smooth muscle cell proliferation (FIG. 51)", "format": "cell-based", "description": "FIG. 51 is a graph of the inhibition of coronary artery smooth muscle cells by trichostatin A in a cell culture study."}}, "data": [{"smiles": "Nc1nc(Cl)nc2c1ncn2[C@H]1C[C@H](O)[C@@H](CO)O1", "note": "[Cladribine, 2-chlorodeoxyadenosine]", "values": [{"measurement": "% of PDGF-stimulated increase in cell count", "setting": "[1]; SMC, Cladribine 10.000 nM", "result": "−4", "unit": "%"}, {"measurement": "potency on smooth muscle cells relative to endothelial cells", "setting": "[1]; from IC50 values 23 and 40 nanomolar", "result": "approximately twice as potent"}, {"measurement": "% of PDGF-stimulated increase in cell count", "setting": "[2]", "result": 10, "unit": "%"}, {"measurement": "effect of addition on the anti-proliferative rapamycin dose response curve", "setting": "[3]", "result": "potentiate the anti-proliferative activity of rapamycin"}, {"measurement": "inhibition of human coronary artery smooth muscle cell proliferation", "setting": "[3]; non-synchronized cells, two percent fetal bovine serum (FIG. 58)", "result": "completely inhibits"}, {"measurement": "in vivo elution from stent coating over time", "setting": "[4]", "result": "after the first day, the elution of cladribine levels off significantly"}, {"measurement": "in vivo elution from stent coating compared with rapamycin", "setting": "[5]", "result": "elutes more rapidly than rapamycin"}]}, {"smiles": "COc1cc([C@@H]2c3cc4c(cc3[C@@H](O[C@@H]3O[C@@H]5CO[C@@H](C)O[C@H]5[C@H](O)[C@H]3O)[C@H]3COC(=O)[C@H]23)OCO4)cc(OC)c1O", "note": "[etoposide]", "values": [{"measurement": "effect of addition on the anti-proliferative rapamycin dose response curve", "setting": "[3]", "result": "potentiate the anti-proliferative activity of rapamycin"}, {"measurement": "cytotoxicity in cell viability assay", "setting": "[6]; concentrations up to ten micromolar", "result": "non-cytotoxic"}, {"measurement": "effect of addition on the anti-proliferative rapamycin dose response curve", "setting": "[7]", "result": "increases the percent inhibition of rapamycin alone"}]}, {"smiles": "COc1c(C)c2c(c(O)c1C/C=C(\\C)CCC(=O)O)C(=O)OC2", "note": "[mycophenolic acid]", "values": [{"measurement": "effect of addition on the anti-proliferative rapamycin dose response curve", "setting": "[3]", "result": "potentiates the anti-proliferative activity of rapamycin"}, {"measurement": "in vivo release from stent coating compared with rapamycin", "setting": "[8]", "result": "elutes more completely over a shorter duration than the rapamycin"}]}, {"smiles": "CC[C@@]1(O)C(=O)OCc2c1cc1n(c2=O)Cc2cc3c(CN(C)C)c(O)ccc3nc2-1", "note": "[topotecan]", "values": [{"measurement": "cytotoxicity in cell viability assay", "setting": "[6]; concentrations up to one micromolar", "result": "non-cytotoxic"}, {"measurement": "effect of addition on the anti-proliferative rapamycin dose response curve", "setting": "[7]", "result": "potentiate the anti-proliferative activity of rapamycin"}]}, {"smiles": "CC(/C=C/C(=O)NO)=C\\[C@@H](C)C(=O)c1ccc(N(C)C)cc1", "note": "[trichostatin A]", "values": [{"measurement": "inhibition of human coronary artery smooth muscle cell proliferation", "setting": "[9]", "result": "completely inhibit"}, {"measurement": "IC50", "setting": "[9]; read-out: anti-proliferative IC50", "result": "~6", "unit": "nM"}]}]}
